Experimental data taken from patent publication US20190015379A1, “USE OF DIANHYDROGALACTITOL AND ANALOGS AND DERIVATIVES THEREOF, TOGETHER WITH RADIATION, TO TREAT NON-SMALL-CELL CARCINOMA OF THE LUNG AND GLIOBLASTOMA MULTIFORME AND SUPPRESS PROLIFERATION OF CANCER STEM CELLS” (DelMar Pharmaceuticals, Inc., priority 2014, published 2019).
Entries after “also recorded” stand apart in the source; their conditions may differ.

How the values were obtained:
[1] = cited from earlier work
GBM = conditions: cited from earlier work
[2] = tested on: CSC and non-CSC cultures derived from primary GBM tissue; experiment: Cell viability (CellTiter-Glo) in primary GBM cultures with or without radiation; assay type: cell-based, human
Procedure: (§1) “GAPDH” refers to glyceraldehyde-3-phosphate dehydrogenase as a control. For the cell cultures, CSCs were cultured in NSA media supplemented with B27, EGF and bFGF. Non-CSCs were grown in DMEM:F12 with 10% FBS. MGMT methylation and protein expression analysis of each culture was characterized. TMZ or VAL-083 was added to the cultures in the indicated concentrations. Depending on the experiment, cells were also irradiated with 2 Gy in a Cesium irradiator. For assays, cell cycle analysis was performed with Propidium Iodide staining and FACs analysis. Cell viability was analyzed with CellTiter-Glo™ and read on a Promega GloMax™. […] In FIG. 4, “1° GBM” refers to primary glioblastoma multiforme cell cultures.
In FIG. 17, TMZ (50 μM) or dianhydrogalactitol (“VAL-083”) (5 μM) were added to primary CSC cultures at various doses with or without irradiation (2 Gy). Shown are cell cycle profile analysis at day 4 post treatment (A,C) and cell viability analysis at day 6 post treatment (B,D) for the paired CSC (A,B) and non-CSC (C,D) 7996 culture.
In FIG. 18, dianhydrogalactitol (“VAL-083”) was added to primary CSC cultures at various doses (1, 2.5 and 5 μM) with or without irradiation (2 Gy). Shown are cell cycle profile analysis at day 4 post treatment (A,C) and cell viability analysis at day 6 post treatment (B,D) for two different patient-derived CSC cultures, 7996 (A,B) and 8565 (C,D).

[3] = tested on: GBM cell lines SF188, U251, and T98G; experiment: Tumor growth inhibition in GBM cell lines (FIG. 29); assay type: cell-based, human; conditions: MGMT negative SF188 and U251, MGMT positive T98G
[4] = tested on: progressive secondary brain tumor; experiment: Phase I/II dose-escalation study, tumor response in secondary brain tumor patients; assay type: in vivo, human; conditions: n = 6
Source text: The methodology of the study reported in this Example is as follows: An open-label, single arm Phase I/II dose-escalation study designed to evaluate the safety, tolerability, pharmacokinetics and anti-tumor activity of dianhydrogalactitol in patients with: (i) histologically confirmed initial diagnosis of primary WHO Grade IV malignant GBM, now recurrent, or (ii) progressive secondary brain tumor, having failed standard brain radiotherapy, and with brain tumor progression after at least one line of systemic therapy. The study utilizes a 3+3 dose escalation design, until the MTD or the maximum specified dose is reached. Patients receive dianhydrogalactitol intravenously at the assigned dose on days 1, 2, and 3 of each 21-day treatment cycle. In Phase II, additional patients will be treated at the MTD (or other selected optimum Phase II dose) to measure tumor responses. All patients enrolled have previously been treated with surgery and/or radiation, if appropriate, and must have failed both bevacizumab and TMZ, unless contraindicated. For these studies, the following is a summary of the inclusion criteria: (1) Patients must be greater than or equal to 18 years old. […]
Enrollment and evaluation of Cohort 7 (40 mg/m^2) is ongoing. […] Tumor volume is assessed during the study based on RANO criteria. […]

[5] = tested on: CSC and non-CSC cultures derived from primary GBM tissue; experiment: Cell cycle analysis (propidium iodide staining, FACS) in primary GBM cultures; assay type: cell-based, human
Procedure: as §1
In FIG. 16, cells were treated with either increasing doses of TMZ (5, 50 100 and 200 μM) or dianhydrogalactitol (“VAL-083”) (1, 5, 25 and 100 μM) and cell cycle analysis was performed 4 days post treatment.
Additional experiments were performed to test the effect of the duration of drug administration. […] Dianhydrogalactitol was left on for the duration of the treatment.

[6] = tested on: cancer stem cells (BT74, GBM4 and GBM8); conditions: neurosphere growth assays; Hu et al. 2012; cited from earlier work

dianhydrogalactitol
Recovery ([1]; GBM chemotherapy, historical data): Within 7-8 days | DLT ([1]; human, in vivo): Hematologic | Nadir ([1]; human, in vivo): 18 to 21 days | Other Severe Toxicities Reported (>2%) ([1]; human, in vivo): None | Median O.S. (XRT + Chemo) (GBM; GBM, Eagan (1979), Stupp (2005)): 67 weeks | efficacy in combination with radiation versus radiation alone (GBM; cumulative IV dose of 125 mg/m^2 in a 35 day cycle, brain cancer, Eagan 1979): superior to radiation alone | effect in combination with radiation ([2]; 1, 2.5 and 5 μM with or without irradiation (2 Gy), CSC cultures 7996 and 8565): acts as a radiosensitizer in primary CSC cultures; also recorded: potential additive effect of dianhydrogalactitol with radiation | reduction in cell viability with dianhydrogalactitol plus radiation ([2]; 7996 GNS (CSC), low concentration such as 1 μM, radiation): 20% | cell viability in TMZ-resistant cultures ([2]; VAL-083 5 μM, paired CSC and non-CSC 7996 culture, viability day 6 post treatment): decreases cell viability in TMZ-resistant cultures | inhibition of tumor growth compared with TMZ [3]: better than TMZ for inhibiting tumor growth | Tumor Response, Overall ([4]; secondary brain tumors (breast adenocarcinoma 2, small-cell lung carcinoma 3, melanoma 1)): Overall = 17% | Tumor Response, SD (number of patients) ([4]; secondary brain tumors): SD (1) | cell death, concentration compared with temozolomide ([5]; CSC and non-CSC cultures, FACS profiles (FIGS. 7-9)): cause cell death at lower concentrations than temozolomide | cell cycle arrest in TMZ-resistant cultures ([5]; VAL-083 1, 5, 25 and 100 μM, cell cycle analysis 4 days post treatment, paired CSC and non-CSC): exhibited sensitivity to VAL-083, even at single-micromolar doses | cell cycle arrest and loss of cell viability, summary ([5]; all cultures tested, independent of MGMT status and stem versus non-stem): cell cycle arrest and loss of cell viability in nearly all cultures tested | effect of duration of drug exposure on cell cycle ([5]; washed out after 3 hours versus left on, 7996 GNS, 8279 GNS, 7996 ML, 8565 ML): less effect when washed out after 3 hours | inhibition of growth of cancer stem cells [6]: 80-100%
